Measurements published in PubChem BioAssay AID1963848 (Molecular Pharmacology Branch, DTP, NCI, 2024).

Tested on: 379773-124-R-J2-PDC spheroid viability
Test: Anticancer human tumor 379773-124-R-J2-PDC patient-derived endometrial carcinoma cell line growth inhibition [POLQ]
Details: spheroids with HUVEC and MSC; for IC50: curve of first compound; for viability, T/C: stronger effect = lower value
In short: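 Growth inhibition in 3D: complex spheroids (tumor PDC, HUVEC, MSC) treated with POLQ inhibitor combinations; where Cmax unknown, highest tested concentration 10 microM, except SN-38 at 1 microM.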

[1] = second compound 0.0316 µM, first compound 0.0316 µM
[2] = second compound 0.0316 µM, first compound 0.1 µM
[3] = second compound 0.0316 µM, first compound 0.316 µM
[4] = second compound 0.0316 µM, first compound 1 µM
[5] = second compound 0.0316 µM, first compound 3.16 µM
[6] = second compound 0.0316 µM, first compound 10 µM
[7] = second compound 0.1 µM, first compound 0.0316 µM
[8] = second compound 0.1 µM, first compound 0.1 µM
[9] = second compound 0.1 µM, first compound 0.316 µM
[10] = second compound 0.1 µM, first compound 1 µM
[11] = second compound 0.1 µM, first compound 3.16 µM
[12] = second compound 0.1 µM, first compound 10 µM
[13] = second compound 0.316 µM, first compound 0.0316 µM
[14] = second compound 0.316 µM, first compound 0.1 µM
[15] = second compound 0.316 µM, first compound 0.316 µM
[16] = second compound 0.316 µM, first compound 1 µM
[17] = second compound 0.316 µM, first compound 3.16 µM
[18] = second compound 0.316 µM, first compound 10 µM
[19] = second compound 1 µM, first compound 0.0316 µM
[20] = second compound 1 µM, first compound 0.1 µM
[21] = second compound 1 µM, first compound 0.316 µM
[22] = second compound 1 µM, first compound 1 µM
[23] = second compound 1 µM, first compound 3.16 µM
[24] = second compound 1 µM, first compound 10 µM
[25] = second compound 3.16 µM, first compound 0.0316 µM
[26] = second compound 3.16 µM, first compound 0.1 µM
[27] = second compound 3.16 µM, first compound 0.316 µM
[28] = second compound 3.16 µM, first compound 1 µM
[29] = second compound 3.16 µM, first compound 3.16 µM
[30] = second compound 3.16 µM, first compound 10 µM
[31] = second compound 10 µM, first compound 0.0316 µM
[32] = second compound 10 µM, first compound 0.1 µM
[33] = second compound 10 µM, first compound 0.316 µM
[34] = second compound 10 µM, first compound 1 µM
[35] = second compound 10 µM, first compound 3.16 µM
[36] = second compound 10 µM, first compound 10 µM
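Also: spheroids exposed to drugs for seven days before readout.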
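For viability, T/C in this document: percent viability relative to DMSO vehicle control taken as 100%.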

SMILES: CCc1cc2c(N3CCc4c(cc(Cn5ccnc5)cc4-c4cn(C)nc4C(F)(F)F)C3=O)cc(C)nc2c(OC)n1 + Nc1ccc(C#CCN(C(=O)Cc2ncc(C(F)(F)F)cc2C(F)(F)F)c2ccc(F)cc2)nn1
- IC50 (second compound 0.0316 µM): > 10 µM
- IC50 (second compound 0.1 µM): 6.39 µM
- IC50 (second compound 0.316 µM): 4.84 µM
- IC50 (second compound 1 µM): 9.88 µM
- IC50 (second compound 3.16 µM): > 10 µM
- IC50 (second compound 10 µM): > 10 µM
- viability, T/C [1]: 75.7%
- viability, T/C [2]: 78.4%
- viability, T/C [3]: 61.9%
- viability, T/C [4]: 60.9%
- viability, T/C [5]: 64.3%
- viability, T/C [6]: 48.9%
- viability, T/C [7]: 66.9%
- viability, T/C [8]: 81.1%
- viability, T/C [9]: 65.3%
- viability, T/C [10]: 62.2%
- viability, T/C [11]: 55.7%
- viability, T/C [12]: 46.4%
- viability, T/C [13]: 74.3%
- viability, T/C [14]: 73%
- viability, T/C [15]: 66.6%
- viability, T/C [16]: 62.3%
- viability, T/C [17]: 52.1%
- viability, T/C [18]: 44.7%
- viability, T/C [19]: 77.5%
- viability, T/C [20]: 68.8%
- viability, T/C [21]: 66.2%
- viability, T/C [22]: 61.6%
- viability, T/C [23]: 52.4%
- viability, T/C [24]: 50.6%
- viability, T/C [25]: 82.2%
- viability, T/C [26]: 67.6%
- viability, T/C [27]: 67.2%
- viability, T/C [28]: 64.7%
- viability, T/C [29]: 57.9%
- viability, T/C [30]: 51.8%
- viability, T/C [31]: 74.5%
- viability, T/C [32]: 68.2%
- viability, T/C [33]: 70.7%
- viability, T/C [34]: 56%
- viability, T/C [35]: 56.4%
- viability, T/C [36]: 51.8%

SMILES: CCc1cc2c(N3CCc4c(cc(Cn5ccnc5)cc4-c4cn(C)nc4C(F)(F)F)C3=O)ccnc2c(OC)n1 + Nc1ccc(C#CCN(C(=O)Cc2ncc(C(F)(F)F)cc2C(F)(F)F)c2ccc(F)cc2)nn1
- IC50 (second compound 0.0316 µM): > 10 µM
- IC50 (second compound 0.1 µM): > 10 µM
- IC50 (second compound 0.316 µM): > 10 µM
- IC50 (second compound 1 µM): > 10 µM
- IC50 (second compound 3.16 µM): > 10 µM
- IC50 (second compound 10 µM): > 10 µM
- viability, T/C [1]: 83.1%
- viability, T/C [2]: 68.2%
- viability, T/C [3]: 61.3%
- viability, T/C [4]: 59.1%
- viability, T/C [5]: 61.6%
- viability, T/C [6]: 54.8%
- viability, T/C [7]: 65.1%
- viability, T/C [8]: 71.1%
- viability, T/C [9]: 61.2%
- viability, T/C [10]: 62.8%
- viability, T/C [11]: 56.2%
- viability, T/C [12]: 53.9%
- viability, T/C [13]: 74.3%
- viability, T/C [14]: 72.3%
- viability, T/C [15]: 67%
- viability, T/C [16]: 64.8%
- viability, T/C [17]: 59.1%
- viability, T/C [18]: 49.9%
- viability, T/C [19]: 84.5%
- viability, T/C [20]: 69%
- viability, T/C [21]: 65.2%
- viability, T/C [22]: 64.8%
- viability, T/C [23]: 56%
- viability, T/C [24]: 53.6%
- viability, T/C [25]: 71.4%
- viability, T/C [26]: 69.7%
- viability, T/C [27]: 65.8%
- viability, T/C [28]: 70.8%
- viability, T/C [29]: 60%
- viability, T/C [30]: 52.6%
- viability, T/C [31]: 85.4%
- viability, T/C [32]: 79.2%
- viability, T/C [33]: 61.6%
- viability, T/C [34]: 67.5%
- viability, T/C [35]: 55%
- viability, T/C [36]: 49.6%

SMILES: COc1cc2cc(C(=O)CCC(=O)O)sc2cc1OC + Nc1ccc(C#CCN(C(=O)Cc2ncc(C(F)(F)F)cc2C(F)(F)F)c2ccc(F)cc2)nn1
- IC50 (second compound 0.0316 µM): > 10 µM
- IC50 (second compound 0.1 µM): > 10 µM
- IC50 (second compound 0.316 µM): > 10 µM
- IC50 (second compound 1 µM): > 10 µM
- IC50 (second compound 3.16 µM): > 10 µM
- IC50 (second compound 10 µM): > 10 µM
- viability, T/C [1]: 84.3%
- viability, T/C [2]: 97.2%
- viability, T/C [3]: 87.6%
- viability, T/C [4]: 93.6%
- viability, T/C [5]: 93.9%
- viability, T/C [6]: 82.7%
- viability, T/C [7]: 93.9%
- viability, T/C [8]: 86%
- viability, T/C [9]: 91.8%
- viability, T/C [10]: 85.5%
- viability, T/C [11]: 104%
- viability, T/C [12]: 92.7%
- viability, T/C [13]: 101%
- viability, T/C [14]: 82.6%
- viability, T/C [15]: 93.7%
- viability, T/C [16]: 93.3%
- viability, T/C [17]: 85.6%
- viability, T/C [18]: 96%
- viability, T/C [19]: 94.8%
- viability, T/C [20]: 84%
- viability, T/C [21]: 96.3%
- viability, T/C [22]: 87.8%
- viability, T/C [23]: 96.4%
- viability, T/C [24]: 85.3%
- viability, T/C [25]: 98.9%
- viability, T/C [26]: 83.4%
- viability, T/C [27]: 82.4%
- viability, T/C [28]: 105%
- viability, T/C [29]: 90.1%
- viability, T/C [30]: 104%
- viability, T/C [31]: 96.2%
- viability, T/C [32]: 89.6%
- viability, T/C [33]: 86.4%
- viability, T/C [34]: 89.3%
- viability, T/C [35]: 84.9%
- viability, T/C [36]: 93.5%
